What was measured:
[1] = system: E. histolytica trophozoites; test: Cell morphology by confocal microscopy (actin); assay type: cell-based, Entamoeba histolytica; settings: phalloidin-rhodamine, treatment with IC50
Method: Then, the culture medium was removed, and the adhered cells were fixed with 4% paraformaldehyde for 1 h at 37 °C. The samples were washed three times with 1× PBS and incubated with 1:50 phalloidin–rhodamine (R415, Invitrogen; Carlsbad, CA, USA) for 1 h at 37 °C. Finally, the cells were washed, mounted with VectaShield/DAPI medium (Vector Laboratories; Newark, CA, USA), and observed with a confocal microscope (LSM-700, Zeiss; Oberkochen, Germany).

[2] = system: E. histolytica trophozoites (amoebic liver abscess); test: Amoebic liver abscess (ALA) model, antiparasitic protocol; assay type: in vivo, Mesocricetus auratus
Source text: M. auratus was used as an animal model because the hamster is naturally susceptible to infection by E. histolytica and can develop amoebic colitis or extraintestinal complications such as an ALA [71]. In this context, the hamster can be used to search for new alternative therapeutic agents against amoebiasis. The hamsters were acquired from Charles River Laboratories Inc. (Wilmington, MA, USA) in 2017 by Centro de Investigación y de Estudios Avanzados del Instituto Politécnico Nacional ([…]-IPN). […] Male hamsters (sexually mature and homozygous) weighing 95 ± 5 g and ≈10 weeks old were selected for the experiments. They were maintained in aseptic conditions at 25 ± 1 °C, 50 ± 3% humidity, a 12 h photoperiod, and ad libitum access to a standard diet (LabDiet; Richmond, IN, USA) and water (Figure 5A). The hamsters were housed in polycarbonate boxes (five per box), with an American Iron and Steel Institute (AISI) lid and wood shavings as bedding, in a controlled room of the Animal Production and Experimentation Unit (UPEAL) from […]-IPN (Figure 5A). Additionally, the health state of the hamsters and their adaptation to the new laboratory conditions were evaluated for 15 days to decrease their stress and anxiety levels. This study was carried out according to the Official Mexican Regulations (NOM-062-ZOO-1999) and NC3Rs ARRIVE [60, 72]. The protocol was approved by the Institutional Animal Care and Use Committee (Reg. No. 0183-16). Finally, the hamsters were not subjected to any previous experimental procedure or any additional treatment before beginning the experimental procedures (see File S1, NC3Rs ARRIVE Guidelines Checklist). Compounds that are prohibited and/or not recommended for use in animals by the American Veterinary Medical Association (Guidelines for the Euthanasia of Animals) were not used.
These experiments were performed with three independent biological replicates. For each replicate, twenty-five hamsters were randomly distributed (simple type) into five experimental groups (five animals per group). The sample size was determined based on the Organization for Economic Cooperation and Development (OECD) recommendations that establish the minimum number of individuals required for the tests so as not to sacrifice animals unnecessarily. Laparotomy was performed in aseptic conditions by using depilation, iodine solution, as well as sterile field cloths. Subsequently, an intra-hepatic puncture was made to deliver 1.5 × 10^6 virulent E. histolytica trophozoites in 100 μL of 1× PBS into the left hepatic lobe for ALA induction (Figure 5A-3). The injection site was immediately covered by applying a gel foam pad to maintain hemostasis. The abdominal layers were sutured discontinuously by single vertical stitches using Vicryl synthetic absorbable suture with a triangular pointed half circle needle. Irregular edges or folds in the surgical wound were eliminated to avoid tissue devitalization or possible infections. The development of a hepatic ALA was monitored for 4 days (Figure 5A-4).
(Figure 5B). The compounds were administered by the i.p. route because the peritoneal cavity presents rapid fluid absorption into the bloodstream, and initial biotransformation by the gastrointestinal tract is avoided. […] The hamsters were evaluated 24 h post-treatment to detect any signs of discomfort/pain or toxicity. The humane endpoint criteria used in this study were >20% body weight loss overnight, cachexia, recumbence, lethargy, respiratory distress, inability to reach food and water, lack of grooming, and ulceration around the surgical site, among others. Additionally, the weight of hamsters was determined at the beginning and end of the experiment with an electronic bascule (CS200, Ohaus; Parsippany, NJ, USA), and the ALA volume was calculated based on imaging (Figure 5B-1). […]

[3] = Paraclinical analysis (serum biochemistry, hematic biometry) in ALA hamsters; assay type: in vivo, Mesocricetus auratus; parameters: BUN: unit not given here
Method: Serum was obtained by centrifugation at 3500 rpm and frozen at −70 °C until analysis. Hematic biometry was performed in a hematology autoanalyzer system (BC-2300, Mindray; Shenzhen, China), and biochemical parameters were made on an automatic medical system (Prestige 24i, Tokyo Boeki; Kanagawa, Japan).

[4] = blood, ALA hamsters, i.p. 4 days
[5] = serum, ALA hamsters, i.p. 4 days

C[C@]12C[C@H](c3ccoc3)OC(=O)[C@H]1CCC13COC(=O)C1=CC=C[C@H]32 (stereo partly drawn) [LL, (4S,7R,9R,10S)-7-(furan-3-yl)-9-methyl-6,16-dioxatetracyclo[8.7.0.01,14.04,9]heptadeca-11,13-diene-5,15-dione]
actin cytoskeleton alteration [1]: reduction in polymerized actin | Edges ([2]; ALA characteristics): Regular and well defined | Leukocyte infiltrate ([2]; ALA characteristics): +/− | Liquid ([2]; ALA characteristics): − | Morphology ([2]; ALA characteristics): Loculated ovoid | ALA Volume ([2]; MRI, i.p. 4 days): 562.3 ± 23.3 * mm^3 | MRI T1 signal of ALA ([2]; T1): Intermediate intensity | MRI T2 signal of ALA ([2]; T2): hypointense | ALA Weight ([2]; i.p. 4 days, KP 5, LL 10, MTZ 10 mg/kg/day): 0.40 ± 0.20 g | AL/GGT ratio ([3]; ALA prognosis ratio): 0.23 ± 0.038 | Erythrocytes [3, 4]: 6.7 ± 0.4 x10 6/mm3 | Hematocrit [3, 4]: 45.4 ± 2.9% | Hemoglobin [3, 4]: 16 ± 0.8 g/dL | Leukocytes [3, 4]: 7.1 ± 1.8 x100/mm3 | MCH [3, 4]: 24 ± 0.3 pg | MCHC [3, 4]: 35 ± 0.9 g/dL | MCV [3, 4]: 68 ± 2.2 fL | MPV [3, 4]: 7.7 ± 0.5 fL | PCT [3, 4]: 0.2 ± 0.0% | PDW [3, 4]: 9.4 ± 0.3 fL | Platelets [3, 4]: 303 ± 31 x106/μL | RDW-CV [3, 4]: 14.7 ± 0.6 fL | RDW-SD [3, 4]: 40 ± 2.3 fL | TB/AL ratio ([3]; drug toxicity ratio): 0.22 ± 0.005 | neutrophil/lymphocyte ratio ([3]; hematic ratio): 1.66 ± 1.26 | BUN/CR ratio ([3]; kidney damage ratio): 31.6 ± 9.8 | urea/CR ratio ([3]; kidney damage ratio): 73.1 ± 26 | ALP/TB ratio ([3]; liver injury ratio): 10.85 ± 1.28 | ALT/ALP ratio ([3]; liver injury ratio): 0.25 ± 0.05 | AST/ALT ratio (De Ritis ratio) ([3]; liver injury ratio): > 1 | Band neutrophils ([3]; manual differential analysis): 0% | Basophils ([3]; manual differential analysis): 0% | Eosinophils ([3]; manual differential analysis): 0% | Immature forms ([3]; manual differential analysis): 0% | Lymphocytes ([3]; manual differential analysis): 44 ± 21% | Monocytes ([3]; manual differential analysis): 0% | Segmented neutrophils ([3]; manual differential analysis): 56 ± 21% | ALT (GPT) [3, 5]: 89 ± 16 U/L | AST (GOT) [3, 5]: 163 ± 22 U/L | Albumin [3, 5]: 1.7 ± 0.1 g/dL | Alkaline phosphatase [3, 5]: 355 ± 9.5 U/L | BUN [3, 5]: 16.1 ± 1.5 | Cholesterol [3, 5]: 105 ± 24 mg/dL | Creatinine [3, 5]: 0.54 ± 0.2 mg/dL | Direct bilirubin [3, 5]: 0.26 ± 0.04 mg/dL | GGT [3, 5]: 7.5 ± 2.1 U/L | Glucose [3, 5]: 123 ± 20 mg/dL | Indirect bilirubin [3, 5]: 0.12 ± 0.0 mg/dL | Total bilirubin [3, 5]: 0.37 ± 0.04 mg/dL | Total protein [3, 5]: 5.3 ± 0.3 g/dL | Triglycerides [3, 5]: 132 ± 8.7 mg/dL | Urea [3, 5]: 37 ± 6.01 mg/dL

Reference: PMC11477209, “Toxicological Evaluation of Kaempferol and Linearolactone as Treatments for Amoebic Liver Abscess Development in Mesocricetus auratus” (International Journal of Molecular Sciences, 2024)
